Test results taken from patent US20240182445A1 (ONO PHARMACEUTICAL CO., LTD., priority 2019, published 2024).
pIC50: −log10 of the molar value.

Target: T1, human TREK-1 (Homo sapiens, UniProt O95069)
T1 construct: expressed in transfected cells
T1 sequence (O95069 1-426): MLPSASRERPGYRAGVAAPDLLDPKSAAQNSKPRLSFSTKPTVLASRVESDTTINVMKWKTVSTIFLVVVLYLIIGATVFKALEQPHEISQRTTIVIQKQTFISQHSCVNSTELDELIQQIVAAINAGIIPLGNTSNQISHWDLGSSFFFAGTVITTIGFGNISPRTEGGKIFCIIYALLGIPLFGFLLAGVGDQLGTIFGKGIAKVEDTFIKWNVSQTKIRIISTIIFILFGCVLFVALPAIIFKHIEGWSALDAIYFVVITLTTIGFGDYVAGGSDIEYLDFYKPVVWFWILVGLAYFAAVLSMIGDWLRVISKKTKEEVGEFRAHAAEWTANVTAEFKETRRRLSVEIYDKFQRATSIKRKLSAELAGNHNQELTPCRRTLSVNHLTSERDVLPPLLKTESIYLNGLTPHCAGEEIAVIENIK
Experiment: TREK-1 Thallium (Tl+) flux assay, Method 1
Type: cell-based
Settings: TREK-1 Thallium (Tl+) flux assay
Summary of the method: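 Readout: Thallos fluorescence ratio, taken 25 s post-thallium relative to the pre-thallium baseline average, then converted to % inhibition. Cells were CHO-K1 stably expressing human TREK-1, dye-loaded and exposed to test compound (vehicle 0.3% DMSO) for 10 min prior to thallium stimulation.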

[1] = values without footnote *12 are Method 1
[2] = no *^12 (Method 2) mark on these rows

| pIC50 [1] | pIC50 [2] | SMILES |
| --- | --- | --- |
| 6.54 | – | CC(C)C(=O)N1CCC(F)(Cn2ncc(Cl)c2C(=O)Nc2ncc(C#Cc3ccccc3)cc2F)CC1 [Compound 190, 4-chloro-1-((4-fluoro-1-isobutyrylpiperidin-4-yl)methyl)-N-(3-fluoro-5-(phenylethynyl)pyridin-2-yl)-1H-pyrazole-5-carboxamide] |
| 6.54 | – | Cc1cc(C#Cc2ccccc2)cnc1NC(=O)c1c(Cl)cnn1[C@H]1CC[C@H](NC(=O)C(C)C)CC1 [Compound 191, 4-chloro-1-(trans-4-isobutyramidocyclohexyl)-N-(3-methyl-5-(phenylethynyl)pyridin-2-yl)-1H-pyrazole-5-carboxamide] |
| 6.54 | – | CC(=O)N1CCC(Cn2ncc(Cl)c2C(=O)Nc2ncc(C#Cc3ccccc3)cc2F)C(F)(F)C1 (stereo not shown) [Compound 192, 1-((1-acetyl-3,3-difluoropiperidin-4-yl)methyl)-4-chloro-N-(3-fluoro-5-(phenylethynyl)pyridin-2-yl)-1H-pyrazole-5-carboxamide] |
| 6.54 | – | CC(=O)N[C@H]1CC[C@H](n2ncc(Cl)c2C(=O)Nc2ncc(C#Cc3ccc(F)cc3)cc2C)CC1 [Compound 193, 1-(trans-4-acetamidocyclohexyl)-4-chloro-N-(5-((4-fluorophenyl)ethynyl)-3-methylpyridin-2-yl)-1H-pyrazole-5-carboxamide] |
| 6.52 | – | Cc1cc(C#Cc2ccccc2)cc(F)c1NC(=O)c1c(Cl)cnn1C1CC(C#N)C1 (stereo not shown) [Compound 194, 4-chloro-1-(3-cyanocyclobutyl)-N-(2-fluoro-6-methyl-4-(phenylethynyl)phenyl)-1H-pyrazole-5-carboxamide] |
| – | 6.52 | CC(=O)N1C[C@H]2C[C@H](n3ncc(Cl)c3C(=O)Nc3ncc(C#Cc4cccc(F)c4)cc3C)C[C@H]2C1 [Compound 195, 1-[(3aR,5s,6aS)-2-acetyloctahydrocyclopenta[c]pyrrol-5-yl]-4-chloro-N-{5-[(3-fluorophenyl)ethynyl]-3-methylpyridin-2-yl}-1H-pyrazole-5-carboxamide] |
| – | 6.52 | CC(=O)N1CCC(CCn2ncc(Cl)c2C(=O)Nc2ncc(C#Cc3ccccc3F)cc2C)CC1 [Compound 196, 1-(2-(1-acetylpiperidin-4-yl)ethyl)-4-chloro-N-(5-((2-fluorophenyl)ethynyl)-3-methylpyridin-2-yl)-1H-pyrazole-5-carboxamide] |
| – | 6.52 | Cc1cc(C#Cc2ccc(F)cc2)cnc1NC(=O)c1c(Cl)cnn1[C@H]1C[C@H](NC(=O)C2CC2)C1 [Compound 198, 4-chloro-1-(trans-3-(cyclopropanecarboxamido)cyclobutyl)-N-(5-((4-fluorophenyl)ethynyl)-3-methylpyridin-2-yl)-1H-pyrazole-5-carboxamide] |
| – | 6.51 | O=C(Nc1c(F)cc(C#Cc2ccccc2)cc1F)c1c(Cl)cnn1[C@H]1CCOC1 [Compound 199, (S)-4-chloro-N-(2,6-difluoro-4-(phenylethnyl)phenyl)-1-(tetrahydrofuran-3-yl)-1H-pyrazole-5-carboxamide] |
| – | 6.51 | Cc1cc(C#Cc2ccccc2)cc(F)c1NC(=O)c1c(Cl)cnn1C[C@@H]1CCOC1 [Compound 200, (S)-4-chloro-N-(2-fluoro-6-methyl-4-(phenylethynyl)phenyl)-1-((tetrahydrofuran-3-yl)methyl)-1H-pyrazole-5-carboxamide] |
| – | 6.51 | O=C(Nc1c(F)cc(C#Cc2ccccc2)cc1F)c1c(Cl)cnn1C1CCOCC1 [Compound 201, 4-chloro-N-(2,6-difluoro-4-(phenylethynyl)phenyl)-1-(tetrahydro-2H-pyran-4-yl)-1H-pyrazole-5-carboxamide] |
| – | 6.51 | CC(=O)N1CC[C@@H](n2ncc(Cl)c2C(=O)Nc2ncc(C#Cc3ccccc3)cc2C)C1 [Compound 202, (R)-1-(1-acetylpyrrolidin-3-yl)-4-chloro-N-(3-methyl-5-(phenylethynyl)pyridin-2-yl)-1H-pyrazole-5-carboxamide] |
| – | 6.51 | CC(=O)N1CC[C@@H](n2ncc(Cl)c2C(=O)Nc2ncc(C#Cc3ccccc3)cc2F)C1 [Compound 203, (R)-1-(1-acetylpyrrolidin-3-yl)-4-chloro-N-(3-fluoro-5-(phenylethynyl)pyridin-2-yl)-1H-pyrazole-5-carboxamide] |
| – | 6.51 | Cc1cc(C#Cc2cccs2)cnc1NC(=O)c1c(Cl)cnn1[C@H]1C[C@@H]2CN(C(=O)C3CC3)C[C@@H]2C1 [Compound 204, 4-chloro-1-[(3aR,5s,6aS)-2-(cyclopropanecarbonyl)octahydrocyclo-penta[c]pyrrol-5-yl]-N-{3-methyl-5-[(thiophen-2-yl)ethynyl]pyridin-2-yl}-1H-pyrazole-5-carboxamide] |
| – | 6.51 | Cc1cc(C#Cc2cccc(F)c2)cnc1NC(=O)c1c(Cl)cnn1C1CCN(C(=O)C(C)(C)C)CC1 [Compound 205, 4-chloro-N-(5-((3-fluorophenyl)ethynyl)-3-methylpyridin-2-yl)-1-(1-pivaloylpiperidin-4-yl)-1H-pyrazole-5-carboxamide] |
| – | 6.51 | O=C(Nc1ncc(C#Cc2cccs2)cc1F)c1c(Cl)cnn1CCC1CCN(C(=O)C2COCCO2)CC1 (stereo not shown) [Compound 206, 1-(2-(1-(1,4-dioxane-2-carbonyl)piperidin-4-yl)ethyl)-4-chloro-N-(3-fluoro-5-(thiophen-2-ylethynyl)pyridin-2-yl)-1H-pyrazole-5-carboxamide] |
| – | 6.51 | Cc1cc(C#Cc2ccccc2)cnc1NC(=O)c1c(Cl)cnn1[C@H]1C[C@@H](NC(=O)C(C)C)C1 [Compound 207, 4-chloro-1-(cis-3-isobutyramidocyclobutyl)-N-(3-methyl-5-(phenylethynyl)pyridin-2-yl)-1H-pyrazole-5-carboxamide] |
| – | 6.51 | CC(=O)N1CC[C@@H](Cn2ncc(Cl)c2C(=O)Nc2ncc(C#Cc3ccccc3)cc2C)[C@H](F)C1 [Compound 208, 1-(((3S,4S)-1-acetyl-3-fluoropiperidin-4-yl)methyl)-4-chloro-N-(3-methyl-5-(phenylethynyl)pyridin-2-yl)-1H-pyrazole-5-carboxamide] |
| – | 6.51 | Cc1cc(C#Cc2ccc(F)cc2)cnc1NC(=O)c1c(Cl)cnn1[C@H]1C[C@H](NC(=O)C(C)C)C1 [Compound 209, 4-chloro-N-(5-((4-fluorophenyl)ethynyl)-3-methylpyridin-2-yl)-1-(trans-3-isobutyramidocyclobutyl)-1H-pyrazole-5-carboxamide] |
| – | 6.49 | Cc1cc(C#Cc2ccccc2)cnc1NC(=O)c1c(Cl)cnn1C1CCOCC1 [Compound 210, 4-chloro-N-(3-methyl-5-(phenylethynyl)pyridin-2-yl)-1-(tetrahydro-2H-pyran-4-yl)-1H-pyrazole-5-carboxamide] |
| – | 6.49 | Cc1cc(C#Cc2ccccc2)cnc1NC(=O)c1c(Cl)cnn1C[C@H]1COCCO1 [Compound 211, (S)-1-((1,4-dioxan-2-yl)methyl)-4-chloro-N-(3-methyl-5-(phenylethynyl)pyridin-2-yl)-1H-pyrazole-5-carboxamide] |
| – | 6.48 | Cc1cc(C#Cc2ccccc2)cnc1NC(=O)c1c(Cl)cnn1C1CC2(C1)CN(C(=O)C(C)C)C2 [Compound 212, 4-chloro-1-(2-isobutyryl-2-azaspiro[3.3]heptan-6-yl)-N-(3-methyl-5-(phenylethynyl)pyridin-2-yl)-1H-pyrazole-5-carboxamide] |
